Data from US11540981B2, “Nanoemulsion formulation with improved stability and cell penetration” (BIOFRONTERA BIOSCIENCE GMBH, priority 2006, dated 2023).

Tests used:
[1] = high concentrations required for clinical application, neutral to basic pH range; cited from earlier work
[2] = Phase II clinical study: pharmacokinetic assessment of systemic plasma and urine levels; details: ALA-treated patients, compared with naturally occurring physiological values in the same individuals
[3] = 25° C.; cited from earlier work

In the case of NCC(=O)CCC(=O)O [ALA, 5-aminolevulinic acid], the “stability in aqueous solutions” value [1] is given as “unstable”, the “plasma concentrations of ALA and its metabolite protoporphyrin IX” value [2] is given as “not increased” and the “urine concentrations of ALA and its metabolite protoporphyrin IX” value [2] is given as “not increased”.
For CCO [ethanol], the viscosity [3] is listed as 1.10 cp.
For CC(C)O [isopropanol], the viscosity [3] is given as 2.32 cp.
